Experimental data taken from BindingDB's records for doi:10.1021/acs.jmedchem.2c01229 (University of Siena, 2023).

Assay: Inhibition of SARS-CoV-1 RdRp-mediated viral replication

CN(C)CCCSc1ccccc1NC(=O)/C=C/c1ccccc1 [CINANSERIN]
IC50: 34 µM
